Assay results published in PubChem BioAssay (NCI).
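Tested at 5 concentrations; 48 h exposure; 96-well plates; endpoints linearly interpolated, else capped at highest concentration. At the GI50, growth is halved. Definition used: TGI = concentration required for complete inhibition of growth.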

Assays:
Assay in all cases: inhibition of tumour cell growth, NCI panel, 48 h
SN12C renal = system: SN12C renal
SR leukemia = system: SR leukemia
NCI-H460 lung = system: NCI-H460 lung
T-47D breast = system: T-47D breast
786-0 renal = system: 786-0 renal
OVCAR-4 ovarian = system: OVCAR-4 ovarian
HOP-62 NSCLC = system: HOP-62 NSCLC
OVCAR-8 ovarian = system: OVCAR-8 ovarian
LOX IMVI melanoma = system: LOX IMVI melanoma
SK-OV-3 ovarian = system: SK-OV-3 ovarian

SMILES | GI50 (SN12C renal) [µM] | TGI (SN12C renal) [µM] | GI50 (SR leukemia) [nM] | TGI (SR leukemia) [µM] | GI50 (NCI-H460 lung) [µM] | TGI (NCI-H460 lung) [µM] | GI50 (T-47D breast) [µM] | TGI (T-47D breast) [µM] | GI50 (786-0 renal) [µM] | TGI (786-0 renal) [µM] | GI50 (OVCAR-4 ovarian) [µM] | TGI (OVCAR-4 ovarian) [µM] | GI50 (HOP-62 NSCLC) [µM] | TGI (HOP-62 NSCLC) [µM] | GI50 (OVCAR-8 ovarian) [µM] | TGI (OVCAR-8 ovarian) [µM] | GI50 (LOX IMVI melanoma) [µM] | TGI (LOX IMVI melanoma) [µM] | GI50 (SK-OV-3 ovarian) [µM] | TGI (SK-OV-3 ovarian) [µM]
Fc1cc2[nH]ncc2c2c3c(c(-c4cn[nH]c4C(F)(F)F)nc12)C1CCC3C1 (stereo not given) | 0.96 | 5.18 | 645 | > 50 | 1.15 | 5.5 | 0.85 | 3.79 | 1.19 | 5.27 | 2.68 | 23.4 | 0.97 | 3.75 | 1.21 | 6.74 | 0.818 | 3.33 | 0.729 | 2.26
COc1ccc(-c2ccc(-c3ccc(C(=N)N)cn3)o2)cc1 | 8.01 | 22.5 | 3110 | 10.3 | 3.69 | 14 | 5.13 | 21 | 6.02 | 18.8 | 10.4 | 22.1 | 10.5 | 22.6 | 11.3 | 31.2 | 2.58 | 6.86 | 10.2 | 21.8
CCn1c(-c2nonc2N)nc2c(C#CC(C)(C)O)nc(OCCNC)cc21 | 7.84 | > 25 | 9560 | > 21.8 | 7.83 | > 25 | 3.83 | > 25 | 7.98 | > 25 | 9.89 | > 25 | 7.81 | > 25 | 7.81 | > 25 | 6.88 | > 25 | 5.74 | > 25
O=C(O)C1CCCCC1C(=O)O.[NH-]C1CCC1.[NH2-].[Pt+2] (stereo not given) | 11.8 | 26.7 | 3720 | > 100 | 22.7 | > 100 | 11 | 34.7 | 15.4 | 33 | 15.2 | 29.7 | 77 | > 100 | > 100 | > 100 | 6.35 | 23.3 | 48.7 | > 100
Nc1ccc(C(=O)CC(N)C(=O)O)cc1O (stereo not given) |  | > 100 |  | > 100 |  | > 100 |  | > 100 |  | > 100 |  | > 100 |  | > 100 |  | > 100 |  | > 100 |  | > 100
CNCCn1c(=O)c2cc(OC)c(OC)cc2c2ccc3cc4c(cc3c21)OCO4 | 0.173 | 3.97 | 17.3 | 0.972 | 0.0226 | 0.558 | 0.0838 | 3.43 | 0.109 | 0.537 | 0.175 | 4.26 | 0.0705 | 1.08 | 0.169 | 6.37 | 0.0577 | 0.173 | 0.157 | 1.32
Cc1ccc2nc(-c3ccc(N(C)C)c(Br)c3)cn2c1 | > 100 | > 100 | 1460 | > 100 | 4.18 | > 100 | > 100 | > 100 | > 100 | > 100 | > 100 | > 100 | > 100 | > 100 | 17.4 | > 100 | 35.2 | > 100 | > 100 | > 100
